SMILES strings stand for the structures. Activity calls are given as the source filed them. The calls are words filed in the database; no cut-off is given here.

Our source for the Activity values is ChEMBL document CHEMBL1671708, “Hydroxymethylnitrofurazone is active in a murine model of Chagas' disease” (Antimicrob Agents Chemother, 2010).

For data set [1], the system named is Trypanosoma cruzi. Kind of data set: Antimicrobial activity against Trypanosoma cruzi Tulahuen infected in Swiss mouse assessed as mouse mortality at 60 mg/kg/day, po for 6 days per week until completion of 60 compound doses administered 5 days post infection. Type of data set: functional.
The subject of data set [2] is Trypanosoma cruzi. Kind of data set: Antimicrobial activity against Trypanosoma cruzi Tulahuen infected in Swiss mouse assessed as parasite DNA level at 60 mg/kg/day, po for 6 days per week until completion of 60 compound doses administered 5 days post infection measured 30 days post dose by PCR amplification method. Type of data set: functional.
Data set [3] concerns Trypanosoma cruzi. Kind of data set: Antimicrobial activity against Trypanosoma cruzi Tulahuen infected in Swiss mouse assessed as parasite DNA level at 60 mg/kg/day, po for 6 days per week until completion of 60 compound doses administered 5 days post infection measured 180 days post dose by PCR amplification method. Type of data set: functional.
Data set [4] has as its system Trypanosoma cruzi. Kind of data set: Antimicrobial activity against Trypanosoma cruzi Tulahuen infected in Swiss mouse assessed as reduction in blood parasite load at 60 mg/kg/day, po for 6 days per week until completion of 60 compound doses administered 5 days post infection. Type of data set: functional, organism-based.
Data set [5] relates to Trypanosoma cruzi. Kind of data set: Antimicrobial activity against Trypanosoma cruzi Tulahuen infected in Swiss mouse assessed as reduction in parasite specific antibodies at 60 mg/kg/day, po for 6 days per week until completion of 60 compound doses administered 5 days post infection measured 45 days post dose by ELISA based serological study. Type of data set: functional, organism-based. A general note: ELISA stands for enzyme-linked immunosorbent assay.

The test system of data set [6] is Trypanosoma cruzi. Kind of data set: Antimicrobial activity against Trypanosoma cruzi Tulahuen infected in Swiss mouse assessed as reduction in parasite specific antibodies at 60 mg/kg/day, po for 6 days per week until completion of 60 compound doses administered 5 days post infection measured 180 days post dose by ELISA based serological study. Type of data set: functional. Details: scale not given: the % may be the effect or the level left.

In data set [7] the test system is Trypanosoma cruzi. Kind of data set: Antimicrobial activity against Trypanosoma cruzi Tulahuen infected in Swiss mouse assessed as reduction in reduction in parasite induced histopathological changes in skeletal muscle at 60 mg/kg/day, po for 6 days per week until completion of 60 compound doses administered 5 days post infection by hematoxylin-eosin staining. Type of data set: functional, organism-based.

Data set [8] relates to Trypanosoma cruzi. The data set is described as follows: Antimicrobial activity against Trypanosoma cruzi Tulahuen infected in Swiss mouse assessed as reduction in reduction in parasite induced histopathological changes in liver at 60 mg/kg/day, po for 6 days per week until completion of 60 compound doses administered 5 days post infection by hematoxylin-eosin staining. Type of data set: functional, organism-based.

Data set [9] deals with Mus musculus. Kind of data set: Toxicity in Trypanosoma cruzi Tulahuen infected in Swiss mouse assessed as changes in liver SGOT enzyme levels at 60 mg/kg/day, po for 6 days per week until completion of 60 compound doses administered 5 days post infection […]. Type of data set: organism-based. The arrangement: route oral. Particulars: in vivo.
Data set [10] relates to Trypanosoma cruzi. Kind of data set: Antimicrobial activity against Trypanosoma cruzi Tulahuen infected in Swiss mouse assessed as mouse mortality rate at 150 mg/kg/day, po for 6 days per week until completion of 60 compound doses administered 5 days post infection. In kind it is functional.
Data set [11] relates to Trypanosoma cruzi. Kind of data set: Antimicrobial activity against Trypanosoma cruzi Tulahuen infected in Swiss mouse assessed as parasite DNA level at 150 mg/kg/day, po for 6 days per week until completion of 60 compound doses administered 5 days post infection measured 30 days post dose by PCR amplification method. Type of data set: functional.
Data set [12] relates to Trypanosoma cruzi. Kind of data set: Antimicrobial activity against Trypanosoma cruzi Tulahuen infected in Swiss mouse assessed as parasite DNA level at 150 mg/kg/day, po for 6 days per week until completion of 60 compound doses administered 5 days post infection measured 180 days post dose by PCR amplification method. Type of data set: functional.
The test system of data set [13] is Trypanosoma cruzi. The data set is described as follows: Antimicrobial activity against Trypanosoma cruzi Tulahuen infected in Swiss mouse assessed as reduction in blood parasite load at 150 mg/kg/day, po for 6 days per week until completion of 60 compound doses administered 5 days post infection. In kind it is functional, organism-based.
In data set [14] the test system is Trypanosoma cruzi. Kind of data set: Antimicrobial activity against Trypanosoma cruzi Tulahuen infected in Swiss mouse assessed as reduction in parasite specific antibodies at 150 mg/kg/day, po for 6 days per week until completion of 60 compound doses administered 5 days post infection measured 45 days post dose by ELISA based serological study. Type of data set: functional, organism-based.

For data set [15], the system named is Trypanosoma cruzi. Kind of data set: Antimicrobial activity against Trypanosoma cruzi Tulahuen infected in Swiss mouse assessed as reduction in parasite specific antibodies at 150 mg/kg/day, po for 6 days per week until completion of 60 compound doses administered 5 days post infection measured 180 days post dose by ELISA based serological study. In kind it is functional. Details: scale not given: the % may be the effect or the level left.

Data set [16] has as its system Trypanosoma cruzi. The data set is described as follows: Antimicrobial activity against Trypanosoma cruzi Tulahuen infected in Swiss mouse assessed as reduction in reduction in parasite induced histopathological changes in skeletal muscle at 150 mg/kg/day, po for 6 days per week until completion of 60 compound doses administered 5 days post infection by hematoxylin-eosin staining. Type of data set: functional, organism-based.

The test system of data set [17] is Trypanosoma cruzi. Kind of data set: Antimicrobial activity against Trypanosoma cruzi Tulahuen infected in Swiss mouse assessed as reduction in reduction in parasite induced histopathological changes in liver at 150 mg/kg/day, po for 6 days per week until completion of 60 compound doses administered 5 days post infection by hematoxylin-eosin staining. Type of data set: functional, organism-based.

Data set [18] concerns Mus musculus. Kind of data set: Toxicity in Trypanosoma cruzi Tulahuen infected in Swiss mouse assessed as changes in liver SGOT enzyme levels at 150 mg/kg/day, po for 6 days per week until completion of 60 compound doses administered 5 days post infection […]. The arrangement: route oral. In kind it is organism-based. Particulars: in vivo.
The test system of data set [19] is Mus musculus. The data set is described as follows: Toxicity in Swiss mouse infected with Trypanosoma cruzi Tulahuen assessed as occurrence of erected hair at 150 mg/kg/day, po for 6 days per week until completion of 60 compound doses administered 5 days post infection measured 2 weeks post dose. In kind it is organism-based. Details: route oral. Particulars: in vivo, 336 h.

For data set [20], the system named is Mus musculus. The data set is described as follows: Toxicity in Swiss mouse infected with Trypanosoma cruzi Tulahuen assessed as occurrence of dehydration at 150 mg/kg/day, po for 6 days per week until completion of 60 compound doses administered 5 days post infection measured 2 weeks post dose. Type of data set: organism-based. Details: route oral. Particulars: in vivo, 336 h.

Data set [21] deals with Mus musculus. The data set is described as follows: Toxicity in Swiss mouse infected with Trypanosoma cruzi Tulahuen assessed as occurrence of inactivity at 150 mg/kg/day, po for 6 days per week until completion of 60 compound doses administered 5 days post infection measured 2 weeks post dose. Type of data set: organism-based. Details: route oral. Particulars: in vivo, 336 h.

For the compound `O=C(Cn1ccnc1[N+](=O)[O-])NCc1ccccc1` [BENZNIDAZOLE], the Activity in data set [1] is 33.3%; in data set [2], 0%; in [3], 0%; in data set [6], 50%; in [9], “Non-toxic”. Further, the outcome in data set [4], in data set [5], in data set [7] and in data set [8] was Active.

Regarding `O=C(NCO)N/N=C/c1ccc([N+](=O)[O-])o1` [HYDROXYMETHYLNITROFURAZONE], the Activity in [10] is recorded as 16%; in data set [11], 10%; in data set [12] it was 0%; in [15], 30%; in data set [18], “Non-toxic”. Besides, the outcome in data set [13], in data set [14], in data set [16] and in data set [17] was Active.

Regarding `NC(=O)N/N=C/c1ccc([N+](=O)[O-])o1` [NITROFURAZONE], the Activity in data set [10] is 75%; in data set [11], 66.6%; in [12] it was 0%; in data set [19], “Toxic”; in data set [20], “Toxic”; in [21], “Toxic”. Besides, the Activity result in data set [18] is on record as “Non-toxic”. For the same compound, the result in data set [13], in [14], in data set [16] and in data set [17] was Active.
